Test results from patent US20130225694A1, “COMPOSITIONS AND METHODS OF INHIBITING RETINAL DEGENERATION” (Oklahoma Medical Research Foundation, priority 2012, published 2013).
Like-named read-outs stand apart in the source and are kept apart here.

Legend:
[1] = tested on: Rat Retina; test: Light-induced retinal degeneration in rats, systemic (IP) nitrone; ERG and ONL histology; details: for A-Wave value at 4 cd·sec/m^2 / B-Wave value at 4 cd·sec/m^2 / A-Wave value at 400 cd·sec/m^2 / B-Wave value at 400 cd·sec/m^2 / % Protection (A-Wave at 4 cd·sec/m^2) / % Protection (A-Wave at 400 cd·sec/m^2) / % Protection (B-Wave at 4 cd·sec/m^2) / % Protection (B-Wave at 400 cd·sec/m^2) / ONL Thickness (μm) Inferior retina / ONL Thickness (μm) Superior retina: 50 mg/kg IP 0.5 h before 2,700 lux 6 h; for A-Wave value at 4 cd·sec/m^2 / B-Wave value at 4 cd·sec/m^2: ERG flash 4.0 cd·sec/m^2 (mostly rod function); for A-Wave value at 400 cd·sec/m^2 / B-Wave value at 400 cd·sec/m^2: ERG flash 400.0 cd·sec/m^2 (rod and cone function); for % Protection (A-Wave at 4 cd·sec/m^2) / % Protection (A-Wave at 400 cd·sec/m^2) / % Protection (B-Wave at 4 cd·sec/m^2) / % Protection (B-Wave at 400 cd·sec/m^2) / % Protection (ONL, Inferior retina) / % Protection (ONL, Superior retina): NLD = 100, Saline LD = 0; for ONL Thickness (μm) Inferior retina / ONL Thickness (μm) Superior retina: histology; for protection of retinal function (ERG A- and B-wave) / protective effect on retinal photoreceptors compared with PBN: 50 mg/kg IP; for protection of retinal function (ERG A- and B-wave): FIGS. 11-12; for protective effect on retinal photoreceptors compared with PBN: ONL histology (FIGS. 14-16)
Protocol: Consistent with previous publications (1-2,5), a dose of 50 mg/kg PBN and S-PBN dissolved in saline was chosen for intraperitoneal injection in the rats in the treatment group. An equal volume of saline was injected into control rats.
A light-stress paradigm of 2,700 lux for 6 hours was used to test the effect of PBN at different time points before (0.5 hour, 3 hours, 6 hours, 12 hours, 16 hours, and 24 hours) or after (0.5 hour and 3 hours) light exposure. The effect of S-PBN was tested using the same dose and protocol of PBN at 0.5 hours before light exposure.
Electroretinography—After light exposure, rats were returned to their dim cyclic light (5-10 lux) environment for 7 days before ERG recordings were performed. Flash ERGs were recorded with the Diagnosys Espion E2 ERG System (Diagnosys, LLC, Lowell, Mass.). Rats were maintained in total darkness overnight and prepared for ERG recording under dim red light. They were anesthetized with ketamine (120 mg/kg body weight) and xylazine (6 mg/kg body weight) intramuscularly (IM). One drop of 10% (v/v) phenylephrine was applied to the cornea to dilate the pupil, and one drop of 0.5% (v/v) proparacaine HCl was applied for local anesthesia. Rats were kept on a heating pad at 37° C. during recordings. A gold electrode was placed on the cornea, a reference electrode was positioned in the mouth, and a ground electrode was placed on the foot; rats were then placed inside a Ganzfeld illuminating sphere. Responses were differentially amplified, averaged, and stored. For the assessment of rod photoreceptor function (scotopic ERG), five strobe flash stimuli were presented at flash intensities at −2.3, −1.3, 0.7, and 2.7 log cd·s/m^2. The amplitude of the a-wave was measured from the pre-stimulus baseline to the a-wave trough. The amplitude of the b-wave was measured from the trough of the a-wave to the peak of the b-wave. For the evaluation of cone function (photopic ERG), a strobe flash stimulus (3.3 log cd·s/m^2) was presented to dilated, light-adapted (5 minutes at 1.7 log cd·s/m^2) rats. The amplitude of the cone b-wave was measured from the trough of the a-wave to the peak of the b-wave.
Histology—After ERG recordings, rats were killed by carbon dioxide asphyxiation for light microscopic evaluation of retinal structure. Immediately after death, eyes were excised, placed in fixative (4% (w/v) paraformaldehyde, 2% (v/v) trichloroacetic acid, 20% (v/v) isopropyl alcohol, 2% (v/v) zinc chloride, and 72% (v/v) distilled water), and embedded in paraffin. Sections of 5 μm were cut along the vertical meridian through the optic nerve and stained with hematoxylin and eosin (H&E).
The PBN derivatives were injected intraperitoneally (IP) into albino SD rats at 50 mg/kg body weight at 0.5 hours before the start of light-damage exposure at 2,700 lux for 6 hours. After the exposure, the rats were moved to their dim cyclic room to recover for a week. Retinal damage/protection was assessed by functional analysis by ERG and structural analysis of histological sections. Dark adapted (12 hour) and Light adapted (for 2 hour) retinas were utilized as controls.

[2] = target: T1, RPE65 isomerohydrolase (Bos taurus, UniProt Q28175); test: In vitro RPE65 isomerohydrolase assay with bovine RPE microsomes (Example 3); type: biochemical; details: for RPE65 inhibition compared with PBN: summary of Table 1
T1 construct: Bovine RPE microsomes were used as a source of the RPE65 protein; from tissue; host or cells: bovine RPE microsomes
T1 sequence (Q28175 whole entry): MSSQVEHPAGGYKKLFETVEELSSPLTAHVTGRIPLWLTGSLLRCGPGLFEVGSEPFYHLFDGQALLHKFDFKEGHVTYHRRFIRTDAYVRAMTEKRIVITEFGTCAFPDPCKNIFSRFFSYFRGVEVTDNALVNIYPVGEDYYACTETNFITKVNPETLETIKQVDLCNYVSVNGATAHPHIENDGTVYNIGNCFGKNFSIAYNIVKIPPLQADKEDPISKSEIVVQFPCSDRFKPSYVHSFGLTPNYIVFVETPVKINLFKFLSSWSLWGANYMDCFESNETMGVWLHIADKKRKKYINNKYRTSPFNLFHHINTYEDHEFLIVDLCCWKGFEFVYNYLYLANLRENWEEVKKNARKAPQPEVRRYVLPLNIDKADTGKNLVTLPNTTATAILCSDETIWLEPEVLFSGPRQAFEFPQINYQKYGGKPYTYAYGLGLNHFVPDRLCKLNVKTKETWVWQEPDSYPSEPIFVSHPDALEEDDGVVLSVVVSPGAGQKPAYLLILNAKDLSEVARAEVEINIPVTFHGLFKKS
Excerpt: In this Example, the effect of several PBN analogs on RPE65 isomerohydrolase activity was investigated in an in vitro assay. The chemical structures of the PBN analogs utilized are described herein above. Bovine RPE microsomes were used as a source of the RPE65 protein and all-trans-[^3H] retinol was a substrate for the isomerohydrolase assay. The produced 11-cis-[^3H] retinol was quantified by normal phase HPLC with flow scintillation analyzer. The inhibition of isomerohydrolase activity was dependent on the PBN analog's concentration.
FIG. 9 also illustrates the calculation of IC50 values for the two difluoro-PBN analogs. IC50 values are the concentration of the inhibitor that inhibits 50% of the enzymatic activity. Therefore, the smaller the IC50 value, the better the drug.

[3] = tested on: rhodopsin; test: Rhodopsin regeneration after topical eye drops in mice; type: in vivo, Balb/c mice; details: for % of Rhodopsin recovery: 5% in eye drop at 6, 3 and 0 h before dark adaptation, LA + 1 h DA, DA control = 100; for inhibition of rhodopsin regeneration as eye drop: eye drop formulation, summary of Table 7
Protocol: Panel A: Application scheme and harvesting of the eye. 3 h group received 2 applications and 6 h group received 3 applications. Panel B: Rhodopsin content was measured as pmole/eye. In 1 h in the dark, untreated eyes (NT-LA 1 h DA, no treatment-light adapted followed by 1 hour dark adaptation) and vehicle-treated eyes recovered 75-80% rhodopsin [dark-adapted (DA) control is 100%], whereas 3 h PBN recovered only 43% and 6 h PBN only 29%. (***P<0.0001 compared to vehicle, n=8; ##p<0.005 between 3 h and 6 h group, n=8).
An eye drop formulation was used with various absorption enhancers for topical application of PBN to mouse eyes. […] One hour dark adaptation followed by light causes 75-80% recovery of bleachable rhodopsin in the Balb/c mice (FIG. 18B, NT-LA 1 h DA). The eye drop without PBN (vehicle) had no effect on rhodopsin regeneration (FIG. 18B, vehicle).
Eye drop formulations were prepared as described in Example 7 and contained 5% or 10% of a PBN derivative. The eye drop formulations were applied to Balb/c mice by the 6 h group application scheme shown in FIG. 18A, in which the eye drops were applied at 6, 3, and 0 h before dark adaptation. The eye drops were applied to completely light-adapted mouse eyes, and the mice were then moved to the dark for 1 h to allow the regeneration of bleachable rhodopsin. One hour dark adaptation followed by light causes […] recovery of bleachable rhodopsin in untreated mice (00, No Treatment). The eye drop without any nitrones (vehicle) had no effect on rhodopsin regeneration (000, vehicle).

[4] = tested on: rhodopsin; test: Rhodopsin regeneration after bleach in rats, IP nitrone; type: in vivo, rat; details: Rattus norvegicus; rats, 50 mg/kg IP, 2 h room light then 2.5 h dark adaptation
Protocol: FIG. 10 graphically illustrates the effects of three PBN analogs of rhodopsin regeneration. Rhodopsin content was measured as nmole/retina following the procedure as in Mandal et al. (J Biol. Chem. 2011. 286 (37):32491-501). After injection with PBN derivatives or vehicles (saline), rats were left in room light for 2 hours (light adapted or LA) and then moved to dark. At 2.5 hours dark adaptation (DA), retinas were harvested. DA-Control, Dark adapted (12 h) control retina without any treatment to show normal rhodopsin content.
Measurement of rhodopsin regeneration—To measure the effect of PBN on the rate of rhodopsin regeneration, dark-adapted rats were injected intraperitoneally with PBN (50 mg/kg) or PBS 0.5 hour prior to a 2 hour bleach in room light (˜400 lux). Immediately following the bleach (time=0 minutes), a group of PBN- and vehicle-treated rats were killed, and retinas were removed and snap frozen. The remaining rats were dark-adapted, and retinas were collected under dim red light at 45, 90, and 180 minutes after the bleach.
Rhodopsin measurements were performed as described previously (2,36) with slight modification. Briefly, under dim red light, each retina was homogenized in 450 μl of buffer containing 10 mM Tris-HCl (pH 7.4), 150 mM NaCl, 1 mM EDTA, 2% (w/v) octylglucoside, and 50 mM hydroxylamine. Homogenates were centrifuged at 16,000 g, and soluble lysates were scanned from 270-800 nm in a spectrophotometer (Ultrospec 3000 UV/Vis Spectrophotometer, GE Healthcare, Piscataway, N.J.). Samples were then bleached under room light for 10 minutes and scanned again. The difference spectra at 500 nm between pre- and post-bleached samples were used to determine rhodopsin content using a molar extinction coefficient of […] (37). The values were normalized to the total lysate volume, and data are presented as rhodopsin content/retina.

[5] = apparent IC50, bovine RPE microsomes, all-trans-[3H] retinol substrate (Table 1), read-out: IC50 Values for the Inhibition of RPE65 Isomerohydrolase Reaction
[6] = in vitro RPE65 isomerohydrolase IC50 values repeated in Table 7, read-out: IC50

SMILES	A-Wave value at 4 cd·sec/m^2 [1]	B-Wave value at 4 cd·sec/m^2 [1]	A-Wave value at 400 cd·sec/m^2 [1]	B-Wave value at 400 cd·sec/m^2 [1]	% Protection (A-Wave at 4 cd·sec/m^2) [1]	% Protection (A-Wave at 400 cd·sec/m^2) [1]	% Protection (B-Wave at 4 cd·sec/m^2) [1]	% Protection (B-Wave at 400 cd·sec/m^2) [1]	ONL Thickness (μm) Inferior retina [1]	ONL Thickness (μm) Superior retina [1]	protection of retinal function (ERG A- and B-wave) [1]	protective effect on retinal photoreceptors compared with PBN [1]	% Protection (ONL, Inferior retina) [1]	% Protection (ONL, Superior retina) [1]	IC50 [2, 5]	IC50 [2, 6]	RPE65 inhibition compared with PBN [2]	% of Rhodopsin recovery [3]	inhibition of rhodopsin regeneration as eye drop [3]	inhibition at 50 mg/kg [4]
CC(C)(C)/[N+]([O-])=C/c1ccc(F)cc1 [Compound 2, 4-Fluorophenyl t-butyl nitrone]	163.0	572.4	295.7	762.6	90.4%	102.3%	79.5%	99.8%	42.4 ± 1.3 μm	42.0 ± 1.4 μm	protected retinal function significantly	comparable to PBN, and even appears to provide more protection than PBN	100%	96.2%	60 µM	60 µM	more effective at inhibiting RPE65 activity than the native PBN molecule	81.15%	not effective at inhibiting rhodopsin regeneration	88%
CC(C)(C)/[N+]([O-])=C/c1ccc(C(F)(F)F)cc1 [Compound 3, 4-Trifluoromethylphenyl t-butyl nitrone]	148.1	478.7	234.7	560.0	80.4%	79.7%	64.9%	71.2%	39.8 ± 1.1 μm	36.8 ± 1.4 μm	protected retinal function significantly	comparable to that of PBN	91.6%	83.1%	60 µM	60 µM	more effective at inhibiting RPE65 activity than the native PBN molecule	52.80%	more effective in inhibiting rhodopsin regeneration than PBN	82%
COc1ccc(/C=[N+](\[O-])C(C)(C)C)cc1 [Compound 5, 4-Methoxyphenyl t-butyl nitrone]															500 µM	500 µM		79.10%		
CCOc1ccc(/C=[N+](\[O-])C(C)(C)C)cc1 [Compound 6, 4-Ethoxyphenyl t-butyl nitrone]															> 2000 µM	> 2000 µM		81.99%		
